Structures can show the parent of a compound that is named as a salt.

Series [1] deals with PMIX processing of the ASP protein. As to the kind of experiment: ASP processing inhibition assay in parasites (western blot, anti-HA). Particulars: 38 at 10 μM, HA‐tagged ASP parasites. Type of series: cell-based, P. falciparum. As to the method: (§1) In this experiment, synchronized late trophozoite/early schizont stage parasites, expressing HA‐tagged ASP, were incubated with 38 (10 μM), the positive control WM382 (1) (2.5 nM) (a dual potent inhibitor of PMIX and PMX) and the DMSO vehicle control. Parasites from each treatment condition were then lysed and the processing of the known PMX and PMIX substrates were detected by western blot as a corollary of protease activity.
P. falciparum ASP and SERA5 Processing Inhibition Assay. P. falciparum substrate processing inhibition assays were performed as previously described.[28] Synchronized ring stage cultures were treated with test compounds 38 (10 μM) and WM382 (2.5 nM)[28] or DMSO as a vehicle control. The parasite cultures were grown to the schizont stage before passing over LD magnetic columns (Miltenyi Biotech) to remove uninfected erythrocytes. Parasites were eluted from columns with RPMI 1640 (in‐house) culture medium to which the appropriate inhibitor at the same concentration had been added. Eluted parasites were adjusted to 5×10^6 schizonts/mL and 150 μL added per well of a 96‐well flat‐bottomed culture plate. […] HA‐tagged apical sushi protein (ASP) was detected in the merozoite fraction with anti‐HA mAb and SERA5 was detected in the supernatant fraction with an anti‐SERA5 polyclonal Ab. […]
On the technique in general: In western blotting, separated proteins are transferred to a membrane and probed.

Series [2] concerns SERA5 processing by SUB1, indicative of upstream activity by PMX. As to the kind of experiment: SERA5 processing inhibition assay in parasites (western blot, anti-SERA5). It counts as cell-based, P. falciparum. The note with it: 38 at 10 μM.
Excerpt: PMX and PMIX ligand cleavage in P. falciparum parasites. It was next determined whether 38 could inhibit PMX and PMIX processing of known invasion and egress ligands in P. falciparum parasites. […] SERA5 is not a direct substrate of PMX, but is processed by SUB1 which itself is activated by PMX. The degree of downstream processing of SERA5 by SUB1 is indicative of PMX activity.
as §1
P. falciparum ASP and SERA5 Processing Inhibition Assay. P. falciparum substrate processing inhibition assays were performed as previously described.[28] Synchronized ring stage cultures were treated with test compounds 38 (10 μM) and WM382 (2.5 nM)[28] or DMSO as a vehicle control. […] HA‐tagged apical sushi protein (ASP) was detected in the merozoite fraction with anti‐HA mAb and SERA5 was detected in the supernatant fraction with an anti‐SERA5 polyclonal Ab. […]

The next series concerns the target T1, renin (Homo sapiens, UniProt P00797).
T1 construct: purchased Proteos R-001
T1 sequence (P00797 67-406): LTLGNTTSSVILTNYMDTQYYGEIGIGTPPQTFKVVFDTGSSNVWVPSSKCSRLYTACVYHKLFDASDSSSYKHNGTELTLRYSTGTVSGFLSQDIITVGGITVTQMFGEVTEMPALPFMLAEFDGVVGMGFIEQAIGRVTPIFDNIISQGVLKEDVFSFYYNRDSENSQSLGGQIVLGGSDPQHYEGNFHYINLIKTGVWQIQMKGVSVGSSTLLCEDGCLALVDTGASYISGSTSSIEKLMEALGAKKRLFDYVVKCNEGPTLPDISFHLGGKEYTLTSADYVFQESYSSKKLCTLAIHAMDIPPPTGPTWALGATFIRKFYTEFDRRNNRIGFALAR
As to the kind of experiment: Renin FRET protease assay. Type of series: biochemical. Particulars: mean and SD of 4 replicate FRET experiments, 37 °C; highest concentration tested 11 μM.

For series [3], the system named is P. falciparum (Pf) 3D7 parasites. As to the kind of experiment: P. falciparum LDH viability assay. Particulars: for EC50: Plasmodium falciparum, 3D7, 72 h, LDH activity, 72 h at 37 °C, mean and SD of 3 independent experiments. It counts as cell-based. The procedure: P. falciparum LDH Viability Assay. P. falciparum LDH viability assays were performed as previously described.[40] Briefly, a ten‐point 1 : 3‐fold dilution series of the compounds were pre‐dispensed in 384‐well assay plates (Grenier), and RPMI/AlbuMAX growth media inoculated with synchronized ring stage P. falciparum parasites. 10 mM compound stocks were transferred into the assay plates such that the starting concentration was 10 μM. Plates were incubated for 72 h and then frozen at −80 °C overnight. Lactate dehydrogenase (LDH) activity was quantified with APAD by measuring absorbance of NBT at 650 nm. Data were normalized to percent growth inhibition using the positive control of 0.1 % DMSO alone and the negative control of 100 nM chloroquine. Half‐maximal effective concentration (EC50) values were calculated by GraphPad Prism (8.0.2) software using a nonlinear regression four‐parameter fit analysis using a sigmoidal dose response (variable slope).

Another series is described as follows: in vitro. It counts as cell-based. Particulars: human. The procedure: HepG2 Cytotoxicity Assay. HepG2 cytotoxicity assays were performed as previously described.[41] Briefly, human hepatocyte HepG2 cells were cultured in DMEM supplemented with 10 % FCS at 37 °C and 5 % CO2 in a humidified incubator. Cells were seeded at 1000 cells/well in 50 μL in 384‐well plates (Grenier) and compounds incubated in ten‐point 1 : 2‐fold dilution series for 48 h. Cytotoxicity was determined using Cell Titer‐Glo (Promega), normalized to DMSO alone controls (100 % viability) and control compound Bortezomib (0 % viability at 10 μM). CC50 values were calculated by GraphPad Prism (8.0.2) software using a nonlinear regression four‐parameter fit analysis with the sigmoidal dose response (variable slope).

The next series concerns PMX. Particulars: cited from earlier work.
The next series concerns Pf 3D7. Also on record: method as in PMID 29074775, PMID 32109369, PMID 23260352, PMID 29519896. Particulars: Figure 1, described in literature; cited from earlier work.
For another series, the system named is PMIX. Set-up: method as in PMID 29074775, PMID 32109369, PMID 23260352, PMID 29519896. Particulars: Figure 1, described in literature; cited from earlier work.

For `C[C@@H](NC[C@@H](O)[C@H](Cc1ccccc1)NC(=O)[C@H](CO)NC(=O)OCc1ccccc1)c1ccccc1` [Compd 38, Cbz‐Ser‐Phe‐HEA‐Bn(CH3)⋅TFA], the “ASP processing by PMIX (western blot)” value in series [1] is given as “partial inhibition of PMIX processing”. Besides, the “SERA5 processing (western blot)” value in series [2] was “complete inhibition of SERA5 processing”. Further, the IC50 (as a rule, the midpoint of a concentration-inhibition curve) against renin is more than 11000 nM. Further, the “fold decrease in parasite activity compared to PMX inhibition” value in series [3] (Pf 3D7 EC50 versus PMX IC50) stood at 2 fold. Besides, the EC50 (as a rule, the concentration at which the effect is half-maximal) in series [3] is 90 nM. For the same compound, the CC50 (in general, the concentration that lowers cell viability or growth by half) at 48 h in “in vitro” is more than 40000 nM.

`C[C@@H](NC[C@@H](O)[C@H](Cc1ccccc1)NC(=O)c1ccc(C(=O)N2CCN(C)CC2)cc1)c1ccccc1` [Compd 2, reference compound]: the IC50 in the series on PMX (Figure 1, described in literature) is 1.4 nM; on renin, more than 11000 nM; in the series on PMIX, 650 nM. Further, the “selectivity for PMX compared to PMIX” value in the series on PMX is more than 500 fold. Moreover, the EC50 in the series on Pf 3D7 was 0.6 nM; in series [3], 1 nM.

(Values after publication PMC9804387, “Substrate Peptidomimetic Inhibitors of P. falciparum Plasmepsin X with Potent Antimalarial Activity” (Chemmedchem, 2022).)
